Numbers after ± are expanded uncertainties.
Test: mn = molality of the nth substance listed, in mol/kg
Conditions: 101 kPa, Liquid; for speed of sound: Sing-around technique in a fixed-path interferometer; for mass density: Vibrating tube method

In the case of O=C[C@H](O)[C@@H](O)[C@H](O)[C@H](O)CO [D-glucose] + O, the speed of sound (298.15 K, m1 = 1.13) is reported as 1564.8 ± 1.4 m/s, the mass density (298.15 K, m1 = 1.13) is reported as 1065.07 ± 0.17 kg/m3 and the speed of sound (303.15 K, m1 = 1.13) is reported as 1574.3 ± 1.4 m/s. The mass density (303.15 K, m1 = 1.13) was 1063.3 ± 0.17 kg/m3, the speed of sound (308.15 K, m1 = 1.13) was 1582.4 ± 1.4 m/s and the mass density (308.15 K, m1 = 1.13) was 1061.36 ± 0.17 kg/m3. For the same compound, the speed of sound (313.15 K, m1 = 1.13) was 1589.1 ± 1.4 m/s, the mass density (313.15 K, m1 = 1.13) was 1059.24 ± 0.17 kg/m3 and the speed of sound (318.15 K, m1 = 1.13) was 1594.4 ± 1.4 m/s. For the same compound, the mass density (318.15 K, m1 = 1.13) was 1056.98 ± 0.16 kg/m3, the speed of sound (323.15 K, m1 = 1.13) was 1598.5 ± 1.4 m/s and the mass density (323.15 K, m1 = 1.13) was 1054.25 ± 0.16 kg/m3.

With OC[C@H]1O[C@@](CO)(O[C@H]2O[C@H](CO)[C@@H](O)[C@H](O)[C@H]2O)[C@@H](O)[C@@H]1O [D-sucrose] + O the speed of sound (298.15 K, m1 = 1.274) was 1607.9 ± 1.4 m/s, the mass density (298.15 K, m1 = 1.274) was 1127.37 ± 0.2 kg/m3 and the speed of sound (303.15 K, m1 = 1.274) was 1615.6 ± 1.4 m/s. For the same compound, the mass density (303.15 K, m1 = 1.274) was 1125.37 ± 0.2 kg/m3, the speed of sound (308.15 K, m1 = 1.274) was 1621.9 ± 1.4 m/s and the mass density (308.15 K, m1 = 1.274) was 1123.2 ± 0.2 kg/m3. The speed of sound (313.15 K, m1 = 1.274) was 1627 ± 1.4 m/s, the mass density (313.15 K, m1 = 1.274) was 1120.73 ± 0.2 kg/m3 and the speed of sound (318.15 K, m1 = 1.274) was 1630.8 ± 1.4 m/s. For the same compound, the mass density (318.15 K, m1 = 1.274) was 1118.18 ± 0.2 kg/m3, the speed of sound (323.15 K, m1 = 1.274) was 1633.3 ± 1.4 m/s and the mass density (323.15 K, m1 = 1.274) was 1115.44 ± 0.2 kg/m3.

From the NIST ThermoML archive (doi:10.1016/j.tca.2011.10.013)
